According to patent US4431665A, “Acylated laidlomycin derivatives” (priority 1980, dated 1984):
Read-outs that look alike come from different tables or passages of the source.

Key:
[1] = tested on: rumen contents (lactic acid accumulation); experiment: Inhibition of lactic acid accumulation, second batch culture fermentation of rumen contents with glucose; assay type: cell-based, bovine (rumen fistulated); conditions: for activity at 2.5 µg/mL: 2.5 μg/ml; for activity at 10 µg/mL: 10 μg/ml; for activity at 0.62 µg/mL: .62 μg/ml; for Accumulation of Lactic Acid - % of Control: Table 4, 360 min
Procedure: Inhibition of lactic acid accumulation is determined using a second batch culture fermentation system. Rumen contents from a rumen fistulated bovine are mixed with an equal amount of buffer which contains a 150 mM concentration of glucose. Following 6 hours of incubation at 39° C., lactic acid produced in the fermentation is analyzed by a specific enzymatic assay. The concentration of lactic acid in the fermentation broth is quantified by the increase in absorbance of light at […] when nicotinamide adenine dinucleotide is reduced by lactic acid with the aid of lactate dehydrogenase. […]
(§1) The procedure of Example 2 was followed to compare laidlomycin (L.), sodium L. (Na L.), L.-propionate (L.C3), L. butyrate (L.C4), L. isobutyrate (L. isoC4), L. pentanoate (L.C5) and L. hexanoate (L.C6).
(§2) The procedure of Example 2 was followed to compare the activities of L. heptanoate (L. C7), L. octanoate (L. C8), L. decanoate (L. C10) and L. dodecanoate (L. C12) in increasing propionic acid production and inhibiting lactic acid production.
(§3) The procedure of Example 2 was followed to compare the activities of laidlomycin (L.) acetate (L. C2), L. pentanoate (L. C5), L. stearate (L. C18), L. cyclobutylcarboxylate, L. cyclopentylcarboxylate, L. cyclohexylcarboxylate and L. cyclopropylcarboxylate.

[2] = tested on: rumen microorganisms (mixed microbial population of rumen contents); experiment: Enhancement of intraruminal propionic acid production, batch culture fermentation of rumen contents; assay type: cell-based, bovine (rumen-fistulated); conditions: for % Propionic Acid: 9 h, 39° C.
Procedure: Enhancement of intraruminal propionic acid production is determined using a batch culture fermentation system. Rumen contents from a rumen-fistulated bovine are mixed with an equal amount of buffer which contains mineral, energy and nitrogen sources required for continued growth and metabolism of the mixed microbial population. Aliquots of this inoculum then are transferred to incubation vessels containing appropriate amounts of sodium laidlomycin (Na L.) (see Example 1A), and L. butyrate (L.C4) (prepared according to the procedure of Example 1A). After 9 hours of incubation at 39° C., concentrations of individual volatile fatty acids in each incubation vessel are determined by gas-liquid chromatography. The net production of each individual volatile fatty acid (acetic [AA], propionic [PA] and butyric [BA]) is calculated as the difference between the concentration after incubation and the concentration before incubation. The molar percentage of propionic acid produced is calculated from the following equation: [formula]
The comparative activities of sodium laidlomycin (Na L.) and the laidlomycin butyrate upon propionic acid and lactic acid production are set forth in Tables 1 and 2 where the concentration is in micrograms per ml (μg/ml).
as §1, §2, §3

male, Swiss-Webster mice = experiment: Acute oral toxicity (mortality, LD50) in mice; assay type: in vivo, mouse (Swiss-Webster); conditions: sesame oil, 21 days
Procedure: (§4) Five groups of male, Swiss-Webster mice (Simonsen), each mouse weighing about 25 grams, were dosed orally with 0.25 ml of a solution of laidlomycin butyrate in sesame oil. A control group of six mice received only sesame oil. The mice were observed daily for mortality for 21 days. From this information the LD50 as calculated to be more than 200 mg/kg.

[3] = Acute oral toxicity (mortality, LD50) in mice; assay type: in vivo, mouse (Swiss-Webster); conditions: mouse, in vivo, male Swiss-Webster mice, 21 days
Procedure: as §4

Gram-positive bacteria = conditions: in words; J. Antibiotics 1974, 1976; cited from earlier work
ruminants = conditions: in words; U.S. Pat. No. 3,794,732; cited from earlier work
[4] = Bos taurus, 6 h, read-out: Accumulation of Lactic Acid - % of Control, Table 4, 1.25 μg/ml, 6 h, 39° C.
[5] = Bos taurus, 6 h, read-out: Accumulation of Lactic Acid - % of Control, Table 4, .31 μg/ml, 6 h, 39° C.
[6] = Bos taurus, 6 h, read-out: Lactic Acid Accumulation (% of Control), Table 2, 1.25 μg/ml, 6 h, 39° C.
[7] = Bos taurus, 6 h, read-out: Lactic Acid Accumulation (% of Control), Table 2, 6 h, 39° C.
[8] = Bos taurus, 6 h, read-out: Lactic Acid Accumulation (% of Control), Table 2, 5 μg/ml, 6 h, 39° C.
[9] = Bos taurus, 6 h, read-out: Lactic Acid Accumulation (% of Control), Table 2, .31 μg/ml, 6 h, 39° C.
[10] = in words, compared with laidlomycin or its sodium salt
[11] = Table 1, 1.25 μg/ml, 0 μg/ml: 35.4
[12] = Table 1, 2.5 μg/ml, 0 μg/ml: 35.4
[13] = Table 1, 5 μg/ml, 0 μg/ml: 35.4
[14] = Table 1, 10 μg/ml, 0 μg/ml: 35.4
[15] = Table 1, .31 μg/ml, 0 μg/ml: 35.4
[16] = Table 1, .62 μg/ml, 0 μg/ml: 35.4
[17] = Table 3, 1.25 μg/ml, 0 μg/ml: 28.5
[18] = Table 3, 5 μg/ml, 0 μg/ml: 28.5
[19] = Table 3, 20 μg/ml, 0 μg/ml: 28.5
[20] = Table 3, .31 μg/ml, 0 μg/ml: 28.5

Compound	activity at 1.25 µg/mL [1, 4] [%]	activity at 0.31 µg/mL [1, 5] [%]	activity at 1.25 µg/mL [1, 6] [%]	activity at 2.5 µg/mL [1, 7] [%]	activity at 5 µg/mL [1, 8] [%]	activity at 10 µg/mL [1, 7] [%]	activity at 0.31 µg/mL [1, 9] [%]	activity at 0.62 µg/mL [1, 7] [%]	% Propionic Acid [2, 11] [%]	% Propionic Acid [2, 12] [%]	% Propionic Acid [2, 13] [%]	% Propionic Acid [2, 14] [%]	% Propionic Acid [2, 15] [%]	% Propionic Acid [2, 16] [%]	% Propionic Acid [2, 17] [%]	% Propionic Acid [2, 18] [%]	% Propionic Acid [2, 19] [%]	% Propionic Acid [2, 20] [%]	Accumulation of Lactic Acid - % of Control ([1]; 5 μg/ml, 6 h, 39° C.)	Accumulation of Lactic Acid - % of Control ([1]; 20 μg/ml, 6 h, 39° C.)	further results
CCCC(=O)OCC1(O)OC(C2CC(C)C(C3(C)CCC(C4(C)CCC5(CC(O)C(C)C(C(C)C(OC(=O)CC)C(C)C(=O)O)O5)O4)O3)O2)C(C)CC1C (stereo not shown) [L. C4, monobutyrate of laidlomycin]	13	38	8	11	13	13	71	30	46.1	52.2	49.3	53.9	43.6	46.4	39.9	43.7	46.9	35.5	–	–	activity at 5 µg/mL ([1]; Bos taurus, 6 h, read-out: Accumulation of Lactic Acid - % of Control, Table 4, 5 μg/ml, 6 h, 39° C.): 15%; activity at 20 µg/mL ([1]; Bos taurus, 6 h, read-out: Accumulation of Lactic Acid - % of Control, Table 4, 20 μg/ml, 6 h, 39° C.): 19%; inhibition of lactic acid production/accumulation [1, 10]: surprisingly increased potency; enhancement of propionic acid production (molar percentage of propionate) [2, 10]: surprisingly increased potency; No. Deaths/No. Mice (male, Swiss-Webster mice; 12.5 mg/kg): 0/6; No. Deaths/No. Mice (male, Swiss-Webster mice; 25 mg/kg): 0/6; No. Deaths/No. Mice (male, Swiss-Webster mice; 50 mg/kg): 0/6; No. Deaths/No. Mice (male, Swiss-Webster mice; 100 mg/kg): 0/6; No. Deaths/No. Mice (male, Swiss-Webster mice; 200 mg/kg): 0/6; LD50 at 504 h [3]: > 200 mg/kg
CCC(=O)OC(C(C)C(=O)O)C(C)C1OC2(CCC(C)(C3CCC(C)(C4OC(C5OC(O)(CO)C(C)CC5C)CC4C)O3)O2)CC(O)C1C (stereo not shown) [L., laidlomycin]	83	121	–	–	–	–	–	–	–	–	–	–	–	–	36.0	39.8	43.2	32.1	20 % of Control	16 % of Control	growth inhibition of Gram-positive bacteria (Gram-positive bacteria): inhibits the growth of some Gram-positive bacteria
CCC(=O)OC(C(C)C(=O)O)C(C)C1OC2(CCC(C)(C3CCC(C)(C4OC(C5OC(O)(CO)C(C)CC5C)CC4C)O3)O2)CC(O)C1C (stereo not shown) [Na L., sodium laidlomycin, reference compound]	–	–	125	112	93	67	135	132	41.3	43.2	44.4	45.4	40.2	40.8	34.1	34.6	36.8	32.0	57 % of Control	40 % of Control	Accumulation of Lactic Acid - % of Control ([1]; 1.25 μg/ml, 6 h, 39° C.): 94 % of Control; Accumulation of Lactic Acid - % of Control ([1]; .31 μg/ml, 6 h, 39° C.): 114 % of Control
monensin	–	–	–	–	–	–	–	–	–	–	–	–	–	–	–	–	–	–	–	–	increasing feed utilization in ruminants (ruminants): useful in increasing feed utilization in ruminants
